Where a chain is given by its changes, count along the chain named. Several values for one entry are separate records, joined by “and”; a condition that tells them apart may be missing. Identical values can stand only once.
Experiments:
[1] = target: T1, ALK2 (Mus musculus, UniProt P37172); assay: In-cell Western ALK2 assay (C2C12 cells, BMP6 as agonist); assay type: cell-based; conditions: read-out: BMP6 ICW
T1 construct: The C2C12 cell line was selected for the measurement of ALK2 activity using BMP6 as the agonist; host or cells: C2C12
T1 sequence (P37172 21-509): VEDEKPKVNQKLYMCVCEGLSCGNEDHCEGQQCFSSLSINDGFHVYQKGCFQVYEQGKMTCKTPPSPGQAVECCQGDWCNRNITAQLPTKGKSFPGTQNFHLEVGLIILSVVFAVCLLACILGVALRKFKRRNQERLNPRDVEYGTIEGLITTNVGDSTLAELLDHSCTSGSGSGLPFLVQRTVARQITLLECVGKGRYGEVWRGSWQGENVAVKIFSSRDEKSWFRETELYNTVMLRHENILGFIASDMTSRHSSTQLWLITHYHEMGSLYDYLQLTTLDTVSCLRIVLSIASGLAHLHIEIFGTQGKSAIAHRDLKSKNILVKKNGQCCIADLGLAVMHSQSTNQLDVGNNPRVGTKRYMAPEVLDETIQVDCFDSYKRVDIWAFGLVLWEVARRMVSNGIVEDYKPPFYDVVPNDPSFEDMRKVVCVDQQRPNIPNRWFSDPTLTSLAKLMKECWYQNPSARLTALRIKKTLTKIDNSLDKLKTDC
From the text: 3. In-Cell Western ALK1 and ALK2 Assays in 384-Well Plate Format.
We also optimized cell-based In-cell Western assays for measurements of ALK1 and ALK2 activities that were used to determine compound activities in these two kinases. The cell lines and agonists used were same as described in above cell-based HTRF ALK1 and ALK2 assays. The initial cell plating and compound treatment were also same. The main difference is the detection of phosphorylation status of SMAD1. In t-cell Western assay, the cells were fixed and phosphorylation status of SMAD1 was detected by the ELISA instead of using the HTRF assay kit in above assay.
HyClone Fetal Bovine Serum was obtained from GE healthcare life sciences (Logan, Utah). BMP6 and BMP9 were purchased from R&D System (R&D). Anti-P-SMAD 1/5/8 rabbit mAb and anti-rabbit IgG, HRP-Linked antibody were purchased from Cell Signaling Technology (Danvers, Mass.). BioFX Chemiluminescent Ultra-Sensitive HRP Microwell Substrate ECL Reagent was obtained from SurModics (Edina, Minn.). The compound plates and the white solid MB assay plates were from Greiner Bio-one (Monroe, N.C.).
Similarly as described in above HTRF cell-based assay, this assay was performed in 384 well plate format. […] Pre-starved cells were then plated in 384 well plate in the starvation medium (containing in 0.1% FBS). After 4 hours, compound dilutions in DMSO were added to the assay plate and incubated for 30 minutes. The assay plate was then added with BMP6 for C2C12 cells or BMP9 for BAOEC cells and incubated for 30 minutes.
The cells were washed in the plate washer with PBS and blocked with 2% BSA in PBS for 1 h at room temperature on the rotator. After removing the blocking reagent, the cells were incubated with the anti-p-SMAD1 antibody in 2% BSA in PBS for overnight at 4° C. on rotator. The cells were washed with PBS in the plate washer and incubated with HRP conjugated second antibody in 2% BSA in PBS for 1 hour at room temperature. After a cell wash with PBS, ECL detection reagent was added and the plate was read in the luminesce mode in the ViewLux plate reader.

[2] = target: T2, ALK2 (Homo sapiens, UniProt Q04771); assay: TR-FRET enzymatic ALK kinase assay, ALK2
T2 sequence (Q04771 21-509): T1 sequence (P37172 21-509) with V1M, Q10P, I121L, E162D, S310P
Protocol: (§1) Briefly, the ALKs enzymatic assay was initiated by dispense 2.5 μl enzyme in 1× kinase reaction buffer. The assay plate was then added with compounds followed by incubation at room temperature for 10 minutes. Then 2.5 μl/well substrate was added.

[3] = target: T3, ALK5 (Homo sapiens, UniProt P36897); assay: TR-FRET enzymatic ALK kinase assay, ALK5
T3 sequence (P36897 34-503): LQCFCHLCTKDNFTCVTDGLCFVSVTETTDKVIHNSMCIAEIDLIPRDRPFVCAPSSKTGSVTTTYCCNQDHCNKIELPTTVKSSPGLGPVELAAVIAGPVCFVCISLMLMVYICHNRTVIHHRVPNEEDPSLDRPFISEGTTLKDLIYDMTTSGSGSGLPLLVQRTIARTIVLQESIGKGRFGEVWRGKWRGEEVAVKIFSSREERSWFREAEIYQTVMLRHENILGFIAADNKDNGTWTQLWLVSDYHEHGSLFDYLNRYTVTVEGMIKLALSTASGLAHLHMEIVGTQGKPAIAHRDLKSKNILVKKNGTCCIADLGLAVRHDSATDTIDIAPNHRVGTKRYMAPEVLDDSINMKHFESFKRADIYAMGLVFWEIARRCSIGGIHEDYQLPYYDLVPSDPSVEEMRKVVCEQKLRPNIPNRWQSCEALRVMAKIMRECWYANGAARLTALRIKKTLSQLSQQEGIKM
Protocol: Six ALK kinase enzyme assays were developed for determination of compound activities on ALK1, ALK2, ALK3, ALK4, ALK5 and ALK6.
as §1

[4] = target: T4, ALK4 (Homo sapiens, UniProt P36896); assay: TR-FRET enzymatic ALK kinase assay, ALK4
T4 sequence (P36896 24-505): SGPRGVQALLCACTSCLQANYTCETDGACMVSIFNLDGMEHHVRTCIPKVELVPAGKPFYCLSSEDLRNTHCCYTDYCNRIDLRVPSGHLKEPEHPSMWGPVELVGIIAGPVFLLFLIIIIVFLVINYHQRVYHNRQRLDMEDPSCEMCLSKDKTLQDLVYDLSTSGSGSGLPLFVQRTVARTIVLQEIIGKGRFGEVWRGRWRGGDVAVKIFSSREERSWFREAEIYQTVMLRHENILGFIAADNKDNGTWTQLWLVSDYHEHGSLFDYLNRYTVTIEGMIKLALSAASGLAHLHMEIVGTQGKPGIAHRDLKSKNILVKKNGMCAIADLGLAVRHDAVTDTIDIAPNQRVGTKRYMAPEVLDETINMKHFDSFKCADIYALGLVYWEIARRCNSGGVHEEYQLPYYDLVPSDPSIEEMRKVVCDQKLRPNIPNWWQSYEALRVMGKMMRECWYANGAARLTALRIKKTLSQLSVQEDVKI
Protocol: as §1

[5] = target: ALK3 (Homo sapiens, UniProt P36894); assay: TR-FRET enzymatic ALK kinase assay, ALK3
Protocol: as §1

[6] = target: ALK6 (Homo sapiens, UniProt O00238); assay: TR-FRET enzymatic ALK kinase assay, ALK6
Protocol: as §1

[7] = target: ALK1 (Homo sapiens, UniProt P37023); assay: TR-FRET enzymatic ALK kinase assay, ALK1
Protocol: as §1

[8] = Cell-based assay, TGFb1 (Cell IC50)
[9] = target: T1, ALK2; assay: HTRF pSMAD1 cell-based ALK2 assay (C2C12 cells, BMP6 as agonist); conditions: cell-based assay, BMP6; read-out: Cell IC50 BMP6
Outline: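 Phospho-SMAD1 HTRF readout, detection incubated overnight at room temperature. Before that: starved cells in 0.1% FBS for 4 h, 30 min compound pretreatment, then 30 min agonist, BMP6 on C2C12 or BMP9 on BAOEC.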

ALK6, sequence (O00238 14-502): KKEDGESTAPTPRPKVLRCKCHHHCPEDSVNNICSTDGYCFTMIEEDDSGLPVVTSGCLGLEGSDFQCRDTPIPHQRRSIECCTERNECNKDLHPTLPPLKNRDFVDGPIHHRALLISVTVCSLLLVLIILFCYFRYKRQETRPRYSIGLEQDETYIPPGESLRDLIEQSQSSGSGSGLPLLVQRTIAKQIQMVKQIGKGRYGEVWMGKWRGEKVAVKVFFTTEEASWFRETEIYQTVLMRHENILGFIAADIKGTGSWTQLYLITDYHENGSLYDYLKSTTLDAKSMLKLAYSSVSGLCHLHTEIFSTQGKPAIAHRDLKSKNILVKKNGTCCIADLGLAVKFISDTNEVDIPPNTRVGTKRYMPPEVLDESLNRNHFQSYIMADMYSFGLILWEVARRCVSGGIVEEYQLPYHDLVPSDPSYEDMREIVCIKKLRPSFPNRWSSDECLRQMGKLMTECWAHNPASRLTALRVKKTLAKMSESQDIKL
ALK1, sequence (P37023 22-503): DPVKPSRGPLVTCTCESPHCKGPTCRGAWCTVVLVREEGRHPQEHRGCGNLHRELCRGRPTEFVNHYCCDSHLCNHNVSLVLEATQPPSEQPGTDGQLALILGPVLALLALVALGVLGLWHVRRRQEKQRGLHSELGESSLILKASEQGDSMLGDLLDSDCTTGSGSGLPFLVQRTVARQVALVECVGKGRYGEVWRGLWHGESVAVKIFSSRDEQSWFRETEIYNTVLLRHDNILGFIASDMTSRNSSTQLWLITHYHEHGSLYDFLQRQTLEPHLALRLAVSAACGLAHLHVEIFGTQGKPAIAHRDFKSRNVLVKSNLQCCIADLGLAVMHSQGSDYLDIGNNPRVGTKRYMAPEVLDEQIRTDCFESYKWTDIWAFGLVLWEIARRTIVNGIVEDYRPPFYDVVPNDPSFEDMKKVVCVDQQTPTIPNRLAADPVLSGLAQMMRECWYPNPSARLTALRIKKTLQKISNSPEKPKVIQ
ALK3, sequence (P36894 24-532): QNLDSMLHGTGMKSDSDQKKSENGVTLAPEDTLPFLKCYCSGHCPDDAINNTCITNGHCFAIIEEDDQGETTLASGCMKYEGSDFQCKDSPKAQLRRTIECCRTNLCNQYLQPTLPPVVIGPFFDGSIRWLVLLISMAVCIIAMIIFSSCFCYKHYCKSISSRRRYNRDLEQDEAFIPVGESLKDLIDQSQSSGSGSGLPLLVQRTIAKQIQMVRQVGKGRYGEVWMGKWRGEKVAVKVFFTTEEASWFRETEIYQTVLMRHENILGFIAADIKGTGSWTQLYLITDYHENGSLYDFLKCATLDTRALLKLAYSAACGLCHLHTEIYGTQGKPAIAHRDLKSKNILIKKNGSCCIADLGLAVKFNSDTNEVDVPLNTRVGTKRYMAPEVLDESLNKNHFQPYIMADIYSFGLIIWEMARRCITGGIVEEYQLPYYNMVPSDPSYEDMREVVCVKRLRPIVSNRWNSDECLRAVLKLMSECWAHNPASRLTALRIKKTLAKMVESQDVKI

Row | IC50 [1] | IC50 [2] | IC50 [3] | IC50 [4] | IC50 [5] | IC50 [6] | IC50 [7] | IC50 [8] | IC50 [9] | Compound
1 | 580 nM and 152 nM | 63 nM | > 10000 nM | > 10000 nM | > 10000 nM | > 10000 nM | 490 nM | – | – | CS(=O)(=O)c1cccc(-c2cnn3cc(-c4ccc(C5CCNC5)cc4)cnc23)c1 (stereo not drawn) [Compound 129, 3-(3-(methylsulfonyl)phenyl)-6-(4-(pyrrolidin-3-yl)phenyl)pyrazolo[1,5-a]pyrimidine]
2 | 150 nM and 250 nM | 75 nM | > 10000 nM | > 10000 nM | > 10000 nM | > 10000 nM | 250 nM | – | – | CS(=O)(=O)c1cccc(-c2cnn3cc(-c4ccc(C5CCCCN5)cc4)cnc23)c1 (stereo not drawn) [Compound 137, 3-(3-(methylsulfonyl)phenyl)-6-(4-(piperidin-2-yl)phenyl)pyrazolo[1,5-a]pyrimidine]
3 | – | 99 nM | > 10000 nM | > 10000 nM | 3000 nM | > 10000 nM | 510 nM | 1.2 nM | 1160 nM | CC(O)c1cccc(-c2cnn3cc(-c4ccc(CCN5CCCCC5)cc4)cnc23)c1 (stereo not drawn) [Compound 97, 1-(3-(6-(4-(2-(piperidin-1-yl)ethyl)phenyl)pyrazolo[1,5-a]pyrimidin-3-yl)phenyl)ethanol]
4 | – | 420 nM | > 10000 nM | > 10000 nM | > 10000 nM | > 10000 nM | 1300 nM | 58 nM | 5920 nM | c1ccc(-c2cnn3cc(-c4ccc(CCN5CCCCC5)cc4)cnc23)cc1 [Compound 88, 3-phenyl-6-(4-(2-(piperidin-1-yl)ethyl)phenyl)pyrazolo[1,5-a]pyrimidine]
5 | – | 28 nM | > 10000 nM | 6000 nM | 2100 nM | > 10000 nM | 67 nM | 3280 nM | 203 nM | CC(C)(CN1CCCCC1)Oc1ccc(-c2cnc3c(-c4cccc(S(C)(=O)=O)c4)cnn3c2)cc1 [Compound 101, 6-(4-((2-methyl-1-(piperidin-1-yl)propan-2-yl)oxy)phenyl)-3-(3-(methylsulfonyl)phenyl)pyrazolo[1,5-a]pyrimidine]
6 | – | 52 nM | > 10000 nM | > 10000 nM | 3200 nM | > 10000 nM | 220 nM | 59200 nM | 179 nM | CN1CCC(c2ccc(-c3cnc4c(-c5cccc(S(C)(=O)=O)c5)cnn4c3)cc2)CC1 [Compound 91, 6-(4-(1-methylpiperidin-4-yl)phenyl)-3-(3-(methylsulfonyl)phenyl)pyrazolo[1,5-a]pyrimidine]
7 | – | 27 nM | 5340 nM | 1210 nM | 123 nM | 568 nM | 75 nM | 2580 nM | 114 nM | C[C@@H]1CNC[C@H](C)N1c1ccc(-c2cnc3c(-c4cccc5c(C#N)cccc45)cnn3c2)cc1 [Compound 25, 5-(6-(4-((2R,6S)-2,6-dimethylpiperazin-1-yl)phenyl)pyrazolo[1,5-a]pyrimidin-3-yl)-1-naphthonitrile]
